Experimental data: PMC10726354, “Design, Synthesis, and Biological Evaluation of Small-Molecule-Based Radioligands with Improved Pharmacokinetic Properties for Imaging of Programmed Death Ligand 1” (Journal of Medicinal Chemistry, 2023)
Several values for one entry are separate records, joined by “and”; a condition that tells them apart may be missing. Equal entries are not always repeated.

Key:
[1] = test system: PC3 PD-L1-overexpressing tumor; test: Small-animal PET, uptake in PD-L1-overexpressing tumor; conditions: for SUVmax PC3 PD-L1 overexpressing tumor: tracer only; for SUVmax PC3 PD-L1 overexpressing tumor +block: blocker i.v. before tracer: Cu-1 100 nmol 1, Cu-2 100 nmol 2, Cu-3 1000 nmol 4, Cu-4 500 nmol 4, Cu-6 250 nmol 1 (~5 min prior), Cu-5 100 nmol 5 (~30 min prior); for blocking effect of BMS-1166 on SUVmax / tumor uptake: any time point, Cu-3: 750 nmol BMS-1166 intraperitoneally 60 min prior, Cu-6: 250 nmol BMS-1166 5 min before
Method: (§1) Changes are reported as % change of the SUVmax of the PD-L1 expressing over the respective value of the mock tumor. Similarly, the effect of blocking is reported as % change of the SUVmax of the animal injected with cold compound over that of the animal that received tracer only.
(§2) Animal experiments were performed in accordance with the guidelines of the German Regulations for Animal Welfare, approved by the Saxonian Ethical Committee for Animal Experiments (reference number DD24.1-5131/449/49). Male athymic NMRI-nude mice (Rj: NMRI-Foxn1^nu/nu, Janvier Laboratories, Le Genest-Saint-Isle, France) between 8 and 22 weeks of age were used. Under general anesthesia, [∼10% desflurane (Baxter, Deerfield, IL, USA) in 30 vol % oxygen + air] and warming, the animals were subcutaneously injected with 3–5 × 10^6 PC3-PD-L1 and PC3-mock cells [in 50 μL PBS +50 μL Matrigel (Corning, Glendale, USA)] into the right and left thigh, respectively. Tumor growth was monitored three times a week by caliper measurements, and mice with tumor sizes above 7 mm were included in the experiments.
(§3) For PET studies, general anesthesia was induced as described above. PET and X-ray computed tomography (CT) were performed in a dedicated small animal nanoScan PET/CT scanner, with four animals imaged simultaneously (Mediso, Budapest, Hungary). CT images were employed for attenuation correction and anatomical referencing. Animals received three individual scans corresponding to 0–2 h (dynamic) and 4.5 and 24 h (static) postinjection.
(§4) PD-L1 radiotracer candidates (in 300 μL sterile 0.9% NaCl/HEPES buffer, pH 6–7, between 7 and 12 MBq, molar activities > 12 GBq/μmol) were delivered over 30 s i.v. (lateral tail vein) and PET acquisition started simultaneously. For blocking condition, a defined quantity of compound (the same unlabeled compound, one from the same series or BMS-1166) was diluted in sterile saline and injected i.v. approximately 5 min prior to the radiotracer. Animals not subjected to blocking were injected with vehicle at the same time.
(§5) Three-dimensional list mode data were binned using the 400–600 keV energy window and sorted into 36 time frames (15 × 10 s, 5 × 30 s, 5 × 60 s, 4 × 300 s, 3 × 600 s, 4 × 900 s). Time frames were reconstructed using the Tera-TomoTM 3D algorithm applying a voxel size of 0.4 mm and corrections for decay, scatter, and attenuation.
(§6) Three-dimensional volumes of interest were delineated applying fixed thresholding at 35% of the measured maximum intensity. Standardized uptake values (SUV = [MBq detected activity/mL tissue]/[MBq injected activity/g body weight], […]) were determined in selected volumes of interest, among these PD-L1 and mock tumors.
(§7) 14. In vivo: PET- SUV data
(§8) Standardized uptake values (SUVmax)
(§9) Supplementary table 1: In vivo standardized uptake values (SUVmax ± standard deviation) of 64Cu-labeled third series compounds [64Cu]Cu-1-6 at 1.5 (1–2), 4.5 (4–5) and 24.5 (24–25) hours
(§10) post injection (p.i.). Compounds used for blocking are described for each tracer and were intravenously injected in sterile saline at stated time before the radiotracer. Animals designated for
(§11) tracer-only received matched type and volume of vehicle at the same time.

PC3 mock tumor = test: Small-animal PET, uptake in mock tumor; conditions: for SUVmax PC3 mock tumor: tracer only; for SUVmax PC3 mock tumor +block: blocker i.v. before tracer: Cu-1 100 nmol 1, Cu-2 100 nmol 2, Cu-3 1000 nmol 4, Cu-4 500 nmol 4, Cu-6 250 nmol 1 (~5 min prior), Cu-5 100 nmol 5 (~30 min prior)
Method: as §1, §2, §3, §4, §5, §6, §7, §8, §9, §10, §11

[2] = Radiotracer production data: stability of the product to in vivo experiments; type: physicochemical
PD-L1 = molecular target: T1, PD-L1 (Homo sapiens, UniProt Q9NZQ7); test: Real-time radioligand binding (LigandTracer) on PC3 PD-L1 cells; conditions: for fold change of real-time binding affinity in presence vs absence of BSA: in either direction; for Kd: real-time binding
T1 construct: expressed in transfected cells; host or cells: PC3 cells (human prostate carcinoma), stably transduced
Method: Real-time radioligand binding using the ligand tracer platform was performed, similar to our previously reported tracer candidates. As we aimed at reducing the albumin binding of the herein presented compounds, we performed measurements in the presence or absence of a mouse physiological concentration of BSA (2.5 g/dL).
For real-time binding to assess kinetics (association rate constant ka and dissociation rate constant kd) and dissociation constant (KD), LigandTracer (Yellow, Ridgeview Instruments AB, Sweden) was employed. Approximately 1.2 × 10^6 cells (in 3 mL medium) were seeded to one side of a Petri dish (Nunc) 1 day prior to experiments as described before.[45] Binding was then performed at room temperature (using CO2-independent medium, Gibco #18045088, Thermo Fisher Germany) with or without BSA (2.5%). First, association was determined by incubation with two concentrations (10 and 40 nM, 90 min each) of the ^64Cu-labeled PD-L1 ligands. Dissociation was then assessed by replacement with fresh medium for at least 2 h. Data were acquired in decay-corrected counts per second (CPS), and binding data were then evaluated using TraceDrawer (1.9.2, Ridgeview Instruments AB, Sweden). Traces were inspected for spikes and irregularities and then normalized to their own baseline (=0%) and highest value (=100%). Data were then fitted using a one-to-one interaction, accounting for the bulk effect.

[3] = Small-animal PET, excretion pattern; type: in vivo, mouse; conditions: PET 0–2, 4–5 and 24–25 h p.i., i.v.
Method: Time points of PET imaging were 0–2, 4–5, and 24–25 h post injection (p.i.).

[4] = 1–2 h (1.5 h) p.i., blocker: Cu-3 1000 nmol 4, Cu-4 500/1000 nmol 4, Cu-5 100 nmol 5, Cu-6 250 nmol BMS-1166
[5] = 4–5 h (4.5 h) p.i., blocker: Cu-3 1000 nmol 4, Cu-4 500/1000 nmol 4, Cu-5 100 nmol 5, Cu-6 250 nmol BMS-1166
[6] = medium only (no BSA), n = 2, mean ± S.D.
[7] = medium only (no BSA), n = 2, mean ± S.D., room temperature
[8] = 24–25 h (24.5 h) p.i., blocker: Cu-1, Cu-2 100 nmol unlabeled compound, Cu-3 1000 nmol 4, Cu-4 500/1000 nmol 4, Cu-5 100 nmol 5, Cu-6 250 nmol BMS-1166

T1 sequence (Q9NZQ7 19-290): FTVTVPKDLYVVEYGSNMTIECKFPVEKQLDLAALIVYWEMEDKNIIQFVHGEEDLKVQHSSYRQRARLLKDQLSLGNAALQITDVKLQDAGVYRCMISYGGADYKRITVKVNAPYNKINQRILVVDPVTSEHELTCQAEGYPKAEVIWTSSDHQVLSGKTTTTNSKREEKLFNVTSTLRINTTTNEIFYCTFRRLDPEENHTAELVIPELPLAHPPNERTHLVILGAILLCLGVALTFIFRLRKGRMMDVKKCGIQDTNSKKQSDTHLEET

SMILES | blocking effect: % change of SUVmax in PD-L1 tumor vs tracer-only [1, 4] | % change of SUVmax of the PD-L1 expressing tumor over the mock tumor ([1]; 1–2 h p.i.) | SUVmax PC3 PD-L1 overexpressing tumor ([1]; 1.5 (1–2) hours p.i.) | SUVmax PC3 PD-L1 overexpressing tumor +block ([1]; 1.5 (1–2) hours p.i.) | blocking effect: % change of SUVmax in PD-L1 tumor vs tracer-only [1, 5] | SUVmax PC3 PD-L1 overexpressing tumor ([1]; 4.5 (4–5) hours p.i.) | SUVmax PC3 PD-L1 overexpressing tumor +block ([1]; 4.5 (4–5) hours p.i.) | SUVmax PC3 PD-L1 overexpressing tumor ([1]; 24.5 (24–25) hours p.i.) | SUVmax PC3 PD-L1 overexpressing tumor +block ([1]; 24.5 (24–25) hours p.i.) | SUVmax PC3 mock tumor (PC3 mock tumor; 1.5 (1–2) hours p.i.) | SUVmax PC3 mock tumor +block (PC3 mock tumor; 1.5 (1–2) hours p.i.) | SUVmax PC3 mock tumor (PC3 mock tumor; 4.5 (4–5) hours p.i.) | SUVmax PC3 mock tumor +block (PC3 mock tumor; 4.5 (4–5) hours p.i.) | SUVmax PC3 mock tumor (PC3 mock tumor; 24.5 (24–25) hours p.i.) | SUVmax PC3 mock tumor +block (PC3 mock tumor; 24.5 (24–25) hours p.i.) | Stability of the product to in vivo experiments [2] | Bmax [normalized (%)] (PD-L1; medium + 2.5% BSA, n = 1) | ka (association rate constant) (PD-L1; medium + 2.5% BSA, n = 1) | Bmax [normalized (%)] (PD-L1; [6]) | ka (association rate constant) (PD-L1; [7]) | further results
Cc1c(COc2cc(OCc3cncc(S(C)(=O)=O)c3)c(CN[C@@H](CS(=O)(=O)O)C(=O)NCCP(=O)(O)O)cc2Cl)cccc1-c1cccc(OCc2cn(CCCN3CCN(C(=O)[C@H](CP(=O)(O)O)NC(=O)CC[C@H](C(=O)O)N4CCN(CC(=O)O)CCN(CC(=O)O)CC4)CC3)nn2)c1C.[64Cu+2] [[^64Cu]Cu-6] | +25% | 121% | 1.83 ± 0.37 | 2.28 ± 0.46 | +16% | 1.55 ± 0.05 | 1.8 ± 0.3 | 2.2 ± 0.1 | 2.3 ± 0.4 | 0.83 ± 0.08 | 1.04 ± 0.15 | 1.35 ± 0.15 | 1.7 ± 0.1 | 2.2 ± 0.2 | 3.05 ± 0.35 | > 99% | 65.3% | 3590 M/s | 107 ± 7.16% | (5.30 ± 0.52) × 10^3 (M s)^−1 | blocking effect of BMS-1166 on SUVmax / tumor uptake [1]: no blocking effect; fold change of real-time binding affinity in presence vs absence of BSA (PD-L1): ≤ 2 fold; Kd (PD-L1; medium + 2.5% BSA, n = 1): 41.4 nM; Kd (PD-L1; [6]): 22 nM and 22.2 nM
Cc1c(COc2cc(OCc3cncc(S(C)(=O)=O)c3)c(CN[C@@H](CS(=O)(=O)O)C(=O)NCCS(=O)(=O)O)cc2Cl)cccc1-c1cccc(OCc2cn(CCCN3CCN(C(=O)[C@H](CS(=O)(=O)O)NC(=O)CC[C@H](C(=O)O)N4CCN(CC(=O)O)CCN(CC(=O)O)CC4)CC3)nn2)c1C.[64Cu+2] [[^64Cu]Cu-3] | −71% | 311% | 3.5 | 1.0 ± 0.1 | −73% | 2.6 ± 0.1 | 0.7 ± 0.3 | 1.35 | 0.65 ± 0.05 | 0.85 ± 0.05 | 0.80 ± 0.1 | 0.55 ± 0.15 | 0.55 ± 0.05 | 0.7 ± 0.2 | 0.45 ± 0.05 | > 99% | 46.6% | 2970 M/s | 95.9 ± 6.49% | (6.59 ± 0.50) × 10^3 (M s)^−1 | excretion / clearance pattern (PET) [3]: predominantly a fast renal and lower hepatobiliary clearance; SUVmax PC3 PD-L1 overexpressing tumor ([1]; 1.5 (1–2) hours p.i., listed as [64Cu]Cu-3): 3.5 ± 0.2; % change of SUVmax of the PD-L1 expressing tumor over the mock tumor ([1]; 4–5 h p.i.): 372%; blocking effect: % change of SUVmax in PD-L1 tumor vs tracer-only [1, 8]: −52%; % change of SUVmax of the PD-L1 expressing tumor over the mock tumor ([1]; 24–25 h p.i.): 93%; SUVmax PC3 PD-L1 overexpressing tumor ([1]; 24.5 (24–25) hours p.i., listed as [64Cu]Cu-3): 1.35 ± 0.15; blocking effect of BMS-1166 on SUVmax / tumor uptake [1]: no effect; blocking effect in the mock tumor (PC3 mock tumor; 1–2 and 4–5 h p.i., 1000 nmol unlabeled compound 4): negligible; blocking effect on SUVmax in the mock tumor (PC3 mock tumor; 24–25 h p.i., blocker: Cu-1, Cu-2 100 nmol unlabeled compound, Cu-3 1000 nmol 4): 36%; Kd (PD-L1; medium + 2.5% BSA, n = 1): 54.3 nM; Kd (PD-L1; [6]): 21 nM and 20.9 nM
Cc1c(COc2cc(OCc3cncc(S(C)(=O)=O)c3)c(CN[C@@H](CS(=O)(=O)O)C(=O)NCCP(=O)(O)O)cc2Cl)cccc1-c1cccc(OCc2cn(CCCN3CCN(C(=O)[C@H](CS(=O)(=O)O)NC(=O)CC[C@H](C(=O)O)N4CCN(CC(=O)O)CCN(CC(=O)O)CC4)CC3)nn2)c1C.[64Cu+2] [[^64Cu]Cu-5] | −46% | 306% | 3.25 | 1.75 ± 0.35 | −6% and −5% | 1.75 | 1.65 ± 0.15 | 1.2 | 1.55 ± 0.05 | 0.80 ± 0.10 | 0.75 ± 0.05 | 1.1 ± 0.1 | 0.85 ± 0.05 | 1.05 ± 0.65 | 1.6 ± 0.00 | > 99% | 219% | 1130 M/s | 446 ± 274% | (1.14 ± 0.60) × 10^3 (M s)^−1 | SUVmax PC3 PD-L1 overexpressing tumor ([1]; 1.5 (1–2) hours p.i., listed as [64Cu]Cu-5): 3.25 ± 0.25; % change of SUVmax of the PD-L1 expressing tumor over the mock tumor ([1]; 4–5 h p.i.): +59%; SUVmax PC3 PD-L1 overexpressing tumor ([1]; 4.5 (4–5) hours p.i., listed as [64Cu]Cu-5): 1.75 ± 0.15; blocking effect: % change of SUVmax in PD-L1 tumor vs tracer-only [1, 8]: +29%; % change of SUVmax of the PD-L1 expressing tumor over the mock tumor ([1]; 24–25 h p.i.): +14%; SUVmax PC3 PD-L1 overexpressing tumor ([1]; 24.5 (24–25) hours p.i., listed as [64Cu]Cu-5): 1.2 ± 0.8; fold change of real-time binding affinity in presence vs absence of BSA (PD-L1): ≤ 2 fold; Kd (PD-L1; medium + 2.5% BSA, n = 1): 100 nM; Kd (PD-L1; [6]): 110 ± 53 nM
